Assay results reported in ChEMBL document CHEMBL1129780, “Adenine-arginine mimetics as bisubstrate analog inhibitors of cAMP-dependent protein kinase” (Bioorg Med Chem Lett, 1996).

Assays:
Type in all cases: protein-complex assay
[1] = biological target: T1, cAMP-dependent protein kinase A (Bos taurus, UniProt P00515+P00517+P05131+P31322); experiment: Inhibitory constant for Protein Kinase A
[2] = biological target: T1, cAMP-dependent protein kinase A; experiment: Inhibition of PKA at 100 uM ATP
[3] = biological target: T1, cAMP-dependent protein kinase A; experiment: Inhibition of PKA at 2 mM ATP

Ki [1] [µM] | IC50 [2] [µM] | IC50 [3] [µM] | Structure (SMILES)
150 | 1700 | 6200 | N=C(N)NCCOCCOCCn1cnc2c(N)ncnc21
38 | 420 | 790 | N=C(N)NCCn1cnc2c(N)ncnc21
29 | 320 | 760 | N=C(N)NCCOCCn1cnc2c(N)ncnc21
15 | 160 | 1100 | Nc1ncnc2c1ncn2[C@@H]1O[C@H](CO)[C@@H](O)[C@H]1O [ADENOSINE]
